In patent US20080039532A1, “Compounds For Specific Viral Target” (priority 2004, published 2008):
Several values for one entry are separate records, joined by “and”; a condition that tells them apart may be missing. Identical values can stand only once. Ends that are not written are not given here. linker‑R1‑R2‑M = not defined here

What was measured:
[1] = molecular target: N36 peptide (CJC-1592) derived from the N-heptad repeat of HIV-1's gp41 glycoprotein (Human immunodeficiency virus type 1 group M subtype B, UniProt P04578); settings: 1 hour incubation at room temperature; 17.5% acrylamide; compared to native C34
Method: Following the 1 hour incubation at room temperature, at least 20 micrograms of total N36/C34 peptide mixture were loaded into each well and separated using Native-polyacrylamide gel electrophoresis (17.5% acrylamide) and stained using Coomassie Brilliant Blue. Unlike SDS-PAGE, Native-PAGE allows one to visualize the formation of six-helix bundles at approximately 28 kDa composed of three central N36 peptides surrounded by three C34 peptides. The formation of this structure and its analogs among other viruses is critical to the subsequent membrane fusion events.

[2] = system: HIV-1 Strain IIIB; assay: Determination of IC-50 of antiviral drugs by reverse transcriptase assay in PHA-stimulated CBMC; assay type: cell-based; settings: for RT Results (cpm) (Day 7): +drugs 7 days, replicate columns; for anti-HIV activity (inhibition of reverse-transcriptase activity of HIV-1) as compared to native C34: standard in vitro assay
Method: Determination of IC-50 for Assessing the Activity of Antiviral Drugs Using HIV-1 Strain IIIB
The assay is performed in a 96-well plate with 500,000 PHA-stimulated CBMC (cord blood mononuclear cells) per well, 2 wells per drug concentration, with a minimum of 6 concentrations per drug. Media used is RPMI 1640 with 10% FBS, penicilin (100 U/ml), streptomycine (100 μg/ml), glutamine (2 mM), hydrocortisone (5 μg/ml), and IL-2 (20 U/ml).
Control drug stocks are prepared by adding 2 ml of buffer to the native compounds or the reactive compounds. The stocks are stored at −20 degrees Celsius. The drug concentrations were determined by ConjuChem Inc. [drawing 76] Addition of the Compound Prior to Cell Infection
Target cells are incubated with different compounds concentrations for 30-60 minutes at 37 degrees Celsius prior to addition of virus (multiplicity of infection (MOI)=0.1-1.0). Following plating, target cells are in the continuous presence of the different concentrations of inhibitor for a total of 7 days.
Following 3-4 days of incubation, each compound is replenished.
Reverse transcriptase assay is used to measure the IC50.
CC50 (cytotoxic concentration) is also evaluated for all compounds.
3TC is used as a control inhibitor

| Substance | binding of C34 derivative to N36 peptide on Native-PAGE [1] | RT Results (cpm) (Day 7) ([2]; Conc 125 nm) | RT Results (cpm) (Day 7) ([2]; Conc 600 nm) | RT Results (cpm) (Day 7) ([2]; Conc 3000 nm) | efficiency of the binding element in binding to its viral target, compared to native C34 ([2]; inferred from anti-HIV activity, N-heptad repeat of HIV-1's gp41) | anti-HIV activity (inhibition of reverse-transcriptase activity of HIV-1) as compared to native C34 [2] |
| --- | --- | --- | --- | --- | --- | --- |
| SEQ ID NO: 32: C34 with linker-R1-R2-M inserted at position Asp5 (Ac-WMEWK(linker‑R1‑R2‑M)REINNYTSLIHSLIEESQNQQERNEQELL; not fully specified; reading uncertain) | does not impede C34 from binding to its target N36 peptide | 6322 cpm and 6929 cpm and 5909 cpm | 6477 cpm and 11889 cpm and 6030 cpm | 7967 cpm and 5896 cpm and 6208 cpm | as efficient in binding to its viral target as native C34 | as effectively as the native C34 |
| SEQ ID NO: 93: native (unreactive, non-covalent) version of C34 (Ac-WMEWDREINNYTSLIHSLIEESQNQQERNEQELL) [reference compound] | – | 5854 cpm and 5040 cpm and 5219 cpm | 4924 cpm and 5850 cpm and 5093 cpm | 5811 cpm and 6955 cpm and 5973 cpm | – | essentially no loss in anti-HIV activity |
